Article PMC11233931, “Remodeling tumor‐associated macrophage for anti‐cancer effects by rational design of irreversible inhibition of mitogen‐activated protein kinase‐activated protein kinase 2” (MedComm, 2024)

How the values were obtained:
Assay in all cases: Eurofins kinase selectivity profile against 380 other human recombinant kinases (Table S2)
Format in all cases: biochemical
[1] = molecular target: T1, 380 human recombinant protein kinases (Homo sapiens, UniProt P05129); conditions: PKCγ(h), read-out: Inhibition rate
T1 construct: purchased Eurofins (Celle Lévescault)
Summary of the method: (§1)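 To gauge specificity for MK2, the compound is profiled externally at various concentrations on recombinant human kinases, 380 in total.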

[2] = molecular target: T2, 380 human recombinant protein kinases (Homo sapiens, UniProt P06239); conditions: Lck(h), read-out: Inhibition rate
T2 construct: purchased Eurofins (Celle Lévescault)
T2 sequence (P06239 whole entry): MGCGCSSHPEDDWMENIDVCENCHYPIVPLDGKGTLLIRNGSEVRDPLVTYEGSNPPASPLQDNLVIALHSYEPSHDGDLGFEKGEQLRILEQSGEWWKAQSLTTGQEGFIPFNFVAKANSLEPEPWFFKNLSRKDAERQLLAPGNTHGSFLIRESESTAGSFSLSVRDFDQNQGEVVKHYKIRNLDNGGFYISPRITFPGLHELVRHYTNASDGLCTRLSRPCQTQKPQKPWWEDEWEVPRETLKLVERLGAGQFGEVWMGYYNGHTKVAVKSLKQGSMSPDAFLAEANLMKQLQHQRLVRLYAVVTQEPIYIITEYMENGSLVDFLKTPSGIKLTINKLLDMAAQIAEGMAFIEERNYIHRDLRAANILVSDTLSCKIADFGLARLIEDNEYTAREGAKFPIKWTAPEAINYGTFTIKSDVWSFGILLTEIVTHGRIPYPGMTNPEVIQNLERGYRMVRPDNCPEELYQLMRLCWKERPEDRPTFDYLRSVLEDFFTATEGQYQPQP
Summary of the method: as §1

[3] = molecular target: T3, 380 human recombinant protein kinases (Homo sapiens, UniProt Q15349); conditions: Rsk3(h), read-out: Inhibition rate (%)
T3 construct: purchased Eurofins (Celle Lévescault)
T3 sequence (Q15349 whole entry): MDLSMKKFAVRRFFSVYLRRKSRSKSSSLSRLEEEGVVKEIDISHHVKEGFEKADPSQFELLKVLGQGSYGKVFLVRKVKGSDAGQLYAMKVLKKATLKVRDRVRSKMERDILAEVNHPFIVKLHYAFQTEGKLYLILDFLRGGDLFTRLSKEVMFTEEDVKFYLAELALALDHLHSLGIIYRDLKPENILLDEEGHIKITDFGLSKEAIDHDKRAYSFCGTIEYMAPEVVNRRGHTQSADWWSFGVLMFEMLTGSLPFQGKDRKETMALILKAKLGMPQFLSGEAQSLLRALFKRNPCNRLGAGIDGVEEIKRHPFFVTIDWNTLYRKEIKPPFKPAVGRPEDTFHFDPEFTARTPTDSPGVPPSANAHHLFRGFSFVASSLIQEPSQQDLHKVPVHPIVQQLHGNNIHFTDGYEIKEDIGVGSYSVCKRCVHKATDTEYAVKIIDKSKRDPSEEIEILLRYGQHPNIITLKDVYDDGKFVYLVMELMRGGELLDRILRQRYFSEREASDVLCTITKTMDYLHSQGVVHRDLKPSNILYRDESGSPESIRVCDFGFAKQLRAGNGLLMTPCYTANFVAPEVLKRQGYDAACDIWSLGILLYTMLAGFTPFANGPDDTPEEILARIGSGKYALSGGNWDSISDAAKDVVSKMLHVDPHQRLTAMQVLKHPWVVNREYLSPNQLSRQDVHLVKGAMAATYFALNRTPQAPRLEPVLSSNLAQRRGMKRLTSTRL
Summary of the method: as §1

[4] = molecular target: T4, 380 human recombinant protein kinases (Homo sapiens, UniProt Q15418); conditions: Rsk1(h), read-out: Inhibition rate
T4 construct: purchased Eurofins (Celle Lévescault)
T4 sequence (Q15418 whole entry): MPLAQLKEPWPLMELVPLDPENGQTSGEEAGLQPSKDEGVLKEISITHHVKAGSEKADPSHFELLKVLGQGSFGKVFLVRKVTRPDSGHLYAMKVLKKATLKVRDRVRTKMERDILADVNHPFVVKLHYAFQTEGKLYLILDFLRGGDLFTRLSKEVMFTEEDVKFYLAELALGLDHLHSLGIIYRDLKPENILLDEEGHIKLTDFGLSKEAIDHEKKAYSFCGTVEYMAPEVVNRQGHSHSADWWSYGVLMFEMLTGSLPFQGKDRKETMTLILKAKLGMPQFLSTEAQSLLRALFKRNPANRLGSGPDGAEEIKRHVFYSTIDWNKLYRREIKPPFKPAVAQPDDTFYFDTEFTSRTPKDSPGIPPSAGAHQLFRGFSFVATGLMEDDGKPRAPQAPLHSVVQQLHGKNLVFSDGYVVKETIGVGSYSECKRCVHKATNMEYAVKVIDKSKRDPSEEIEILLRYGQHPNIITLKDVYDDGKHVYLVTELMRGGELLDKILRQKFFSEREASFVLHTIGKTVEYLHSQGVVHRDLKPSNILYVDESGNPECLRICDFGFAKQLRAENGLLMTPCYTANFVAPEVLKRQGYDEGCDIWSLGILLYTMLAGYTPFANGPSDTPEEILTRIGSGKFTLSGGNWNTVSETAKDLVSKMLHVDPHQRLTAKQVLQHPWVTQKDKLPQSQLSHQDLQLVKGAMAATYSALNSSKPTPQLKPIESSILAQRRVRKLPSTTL
Summary of the method: as §1

[5] = molecular target: T5, 380 human recombinant protein kinases (Homo sapiens, UniProt Q8NG66); conditions: NEK11(h), read-out: Inhibition rate
T5 construct: purchased Eurofins (Celle Lévescault)
T5 sequence (Q8NG66 1-645): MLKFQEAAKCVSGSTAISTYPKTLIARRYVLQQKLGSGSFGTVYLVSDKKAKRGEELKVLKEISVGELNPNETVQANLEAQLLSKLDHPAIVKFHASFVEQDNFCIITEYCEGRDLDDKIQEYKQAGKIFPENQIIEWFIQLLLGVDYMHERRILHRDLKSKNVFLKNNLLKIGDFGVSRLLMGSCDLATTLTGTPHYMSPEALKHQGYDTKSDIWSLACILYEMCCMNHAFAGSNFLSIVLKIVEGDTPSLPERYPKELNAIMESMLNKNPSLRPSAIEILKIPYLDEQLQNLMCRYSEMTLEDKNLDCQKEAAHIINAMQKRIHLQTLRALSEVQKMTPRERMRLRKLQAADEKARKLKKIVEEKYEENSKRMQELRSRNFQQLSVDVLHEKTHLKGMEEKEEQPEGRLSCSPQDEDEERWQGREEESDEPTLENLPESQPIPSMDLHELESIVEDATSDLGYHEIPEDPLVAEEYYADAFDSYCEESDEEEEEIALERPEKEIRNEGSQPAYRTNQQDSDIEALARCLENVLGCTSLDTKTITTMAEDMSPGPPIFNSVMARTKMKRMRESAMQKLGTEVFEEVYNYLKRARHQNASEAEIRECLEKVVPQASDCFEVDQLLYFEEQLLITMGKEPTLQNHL
Summary of the method: as §1

[6] = molecular target: T6, 380 human recombinant protein kinases (Homo sapiens, UniProt Q92630); conditions: DYRK2(h), read-out: Inhibition rate
T6 construct: purchased Eurofins (Celle Lévescault)
T6 sequence (Q92630 1-601): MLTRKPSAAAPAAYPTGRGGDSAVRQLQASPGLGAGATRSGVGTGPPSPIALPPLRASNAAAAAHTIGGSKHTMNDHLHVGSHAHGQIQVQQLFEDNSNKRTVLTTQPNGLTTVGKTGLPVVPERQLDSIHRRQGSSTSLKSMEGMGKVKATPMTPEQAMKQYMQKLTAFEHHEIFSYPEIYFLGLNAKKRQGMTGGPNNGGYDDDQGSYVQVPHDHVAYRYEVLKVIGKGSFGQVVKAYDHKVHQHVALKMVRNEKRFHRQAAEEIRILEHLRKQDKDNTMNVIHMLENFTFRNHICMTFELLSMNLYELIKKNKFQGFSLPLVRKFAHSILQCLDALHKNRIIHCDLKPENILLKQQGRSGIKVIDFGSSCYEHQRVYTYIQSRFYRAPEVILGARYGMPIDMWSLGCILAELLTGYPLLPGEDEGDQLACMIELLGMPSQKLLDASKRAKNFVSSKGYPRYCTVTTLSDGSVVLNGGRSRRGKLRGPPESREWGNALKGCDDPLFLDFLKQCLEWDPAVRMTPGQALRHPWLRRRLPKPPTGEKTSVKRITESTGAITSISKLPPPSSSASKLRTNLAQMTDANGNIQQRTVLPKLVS
Summary of the method: as §1

[7] = molecular target: T7, 380 human recombinant protein kinases (Homo sapiens, UniProt Q96J92); conditions: WNK4(h), read-out: Inhibition rate (%)
T7 construct: purchased Eurofins (Celle Lévescault)
T7 sequence (Q96J92 whole entry): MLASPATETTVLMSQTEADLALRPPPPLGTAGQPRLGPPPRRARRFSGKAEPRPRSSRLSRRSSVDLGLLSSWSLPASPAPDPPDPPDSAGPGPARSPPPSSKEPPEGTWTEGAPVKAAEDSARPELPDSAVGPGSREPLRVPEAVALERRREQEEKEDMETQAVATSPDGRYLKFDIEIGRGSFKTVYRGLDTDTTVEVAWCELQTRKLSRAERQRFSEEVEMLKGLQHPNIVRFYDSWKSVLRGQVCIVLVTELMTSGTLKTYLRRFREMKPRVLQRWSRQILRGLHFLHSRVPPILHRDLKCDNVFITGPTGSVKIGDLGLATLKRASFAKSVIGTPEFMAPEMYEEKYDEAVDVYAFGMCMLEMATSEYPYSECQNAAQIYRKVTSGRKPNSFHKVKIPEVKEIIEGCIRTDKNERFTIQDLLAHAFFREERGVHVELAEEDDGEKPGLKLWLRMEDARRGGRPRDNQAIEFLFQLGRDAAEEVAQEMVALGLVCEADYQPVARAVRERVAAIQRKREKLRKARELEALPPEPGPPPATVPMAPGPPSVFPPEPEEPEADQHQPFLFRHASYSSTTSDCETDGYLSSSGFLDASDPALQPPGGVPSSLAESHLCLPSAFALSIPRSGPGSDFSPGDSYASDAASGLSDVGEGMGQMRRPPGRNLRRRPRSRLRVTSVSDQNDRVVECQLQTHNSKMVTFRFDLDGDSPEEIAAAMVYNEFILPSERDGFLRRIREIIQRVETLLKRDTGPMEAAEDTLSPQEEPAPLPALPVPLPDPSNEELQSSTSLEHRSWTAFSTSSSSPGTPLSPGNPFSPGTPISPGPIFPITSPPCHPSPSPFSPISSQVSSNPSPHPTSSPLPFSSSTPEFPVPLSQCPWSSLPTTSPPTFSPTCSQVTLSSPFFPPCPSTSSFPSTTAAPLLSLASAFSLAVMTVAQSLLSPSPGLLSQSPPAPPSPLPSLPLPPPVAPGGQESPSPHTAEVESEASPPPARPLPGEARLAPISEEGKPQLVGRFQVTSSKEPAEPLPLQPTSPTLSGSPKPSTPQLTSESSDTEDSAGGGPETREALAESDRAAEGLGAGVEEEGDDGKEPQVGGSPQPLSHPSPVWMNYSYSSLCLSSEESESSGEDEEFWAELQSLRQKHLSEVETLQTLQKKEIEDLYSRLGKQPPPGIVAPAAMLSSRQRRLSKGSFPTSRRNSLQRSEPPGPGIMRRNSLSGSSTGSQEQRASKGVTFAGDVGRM
Summary of the method: as §1

[8] = molecular target: T8, 380 human recombinant protein kinases (Homo sapiens, UniProt Q9UQ07); conditions: MOK(h), read-out: Inhibition rate
T8 construct: purchased Eurofins (Celle Lévescault)
T8 sequence (Q9UQ07 1-419): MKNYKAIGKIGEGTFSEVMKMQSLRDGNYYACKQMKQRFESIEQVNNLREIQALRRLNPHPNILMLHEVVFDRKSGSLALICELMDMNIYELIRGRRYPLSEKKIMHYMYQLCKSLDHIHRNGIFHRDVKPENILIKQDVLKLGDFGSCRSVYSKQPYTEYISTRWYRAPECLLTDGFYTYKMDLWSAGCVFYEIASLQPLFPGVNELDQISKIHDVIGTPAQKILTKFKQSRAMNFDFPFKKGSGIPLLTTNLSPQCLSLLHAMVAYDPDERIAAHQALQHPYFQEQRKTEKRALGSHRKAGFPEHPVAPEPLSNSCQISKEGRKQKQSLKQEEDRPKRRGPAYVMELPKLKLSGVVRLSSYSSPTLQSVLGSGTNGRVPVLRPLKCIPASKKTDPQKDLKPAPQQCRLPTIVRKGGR
Summary of the method: as §1

C=CC(=O)Nc1cc(-c2cc(-c3cc4c([nH]3)CCNC4=O)ccn2)ccc1OC(F)(F)F [compound 11]
inhibition at 0.01 µM ([1]; 10 nM): 7% | inhibition at 0.1 µM ([1]; 100 nM): 5% | inhibition at 1 µM ([1]; 1000 nM): 14% | inhibition at 0.01 µM ([2]; 10 nM): -7% | inhibition at 0.1 µM ([2]; 100 nM): -5% | inhibition at 1 µM ([2]; 1000 nM): -10% | inhibition at 0.01 µM ([3]; 10 nM): -9% | inhibition at 0.1 µM ([3]; 100 nM): 14% | inhibition at 1 µM ([3]; 1000 nM): 16% | inhibition at 0.01 µM ([4]; 10 nM): -2% | inhibition at 0.1 µM ([4]; 100 nM): -3% | inhibition at 1 µM ([4]; 1000 nM): -7% | inhibition at 0.01 µM ([5]; 10 nM): -1% | inhibition at 0.1 µM ([5]; 100 nM): 0% | inhibition at 1 µM ([5]; 1000 nM): -4% | inhibition at 0.01 µM ([6]; 10 nM): 16% | inhibition at 0.1 µM ([6]; 100 nM): 67% | inhibition at 1 µM ([6]; 1000 nM): 98% | inhibition at 0.01 µM ([7]; 10 nM): 6% | inhibition at 0.1 µM ([7]; 100 nM): 6% | inhibition at 1 µM ([7]; 1000 nM): 3% | inhibition at 0.01 µM ([8]; 10 nM): 11% | inhibition at 0.1 µM ([8]; 100 nM): 7% | inhibition at 1 µM ([8]; 1000 nM): 2%
